Patent publication US20230302131A1, “MPC INHIBITION FOR PRODUCING T-CELLS WITH A MEMORY PHENOTYPE” (UNIVERSITÉ DE LAUSANNE, priority 2020, published 2023)
“Also recorded” adds a separate entry of the source.

Tested on: transferred OT1 CD8 T cells; ovalbumine-expressing B16 melanoma
Assay: Vaccination model with UK5099 as vaccine adjuvant, then B16 melanoma challenge
Format: in vivo, mouse
Conditions: vs DMSO; for control of B16 tumor growth after challenge: 0.5 mg s.c. at d0 and d2, B16 challenge 40 days post-vaccination, tumor growth and weight
Excerpt: One of the main goals of preventive and therapeutic vaccination in the context of pathogen infection and cancer is the establishment of a potent memory CD8 T cell pool. Since it was observed that MPC inhibition during in vitro priming of antigen-specific CD8 T cells increases their memory formation, it was investigated whether the MPCi could be used as a vaccine adjuvant. 10^5 naïve OT1 CD8 T cells were […] in healthy mice and the mice were subsequently vaccinated by a subcutaneous injection of 50 μg CpG and 10 μg SIINFEKL containing additionally 0.5 mg UK5099 or and equal volume of DMSO as control. 48 hours later, the mice received another subcutaneous injection of 0.5 mg UK5099 or and equal volume of DMSO (FIG. 4A). […] It was investigated whether this would render them better prepared for a subsequent antigen challenge, and injected 10^5 ovalbumine-expressing B16 melanoma cells s.c. in the flank of the mice at 40 days post-vaccination (FIG. 4A).
Naïve CD8 T cells were isolated from OT1 spleens (negative selection, Stem Cell Technologies). 1×10^5 T cells were i.v. transferred in WT C57BL/6 mice, followed by a subcutaneous injection of the vaccine, consisting of 10 μg SIINFEKL peptide, 50 μg CpG and 0.5 mg UK5099 or DMSO diluted in a total of 100 μl PBS per mouse. 2 days post-vaccination, mice received a second dose of s.c. 0.5 mg UK5099 or DMSO. After 2 weeks, blood was collected from the tail vein and analyzed by flow cytometry. 40 days post-vaccination, mice were challenged by an s.c. injection of 1×10^5 SIINFEKL-expressing B16 melanoma cells. 17 days later, mice were sacrificed and the tumor was dissected.

## N#CC(=Cc1cn(-c2ccccc2)c2ccccc12)C(=O)O [UK5099, 2-cyano-3-(1-phenyl-1H-indol-3-yl)-2-propenoic acid]
  control of B16 tumor growth after challenge: protects against tumor growth
Listed as MPCi
  control of B16 tumor growth after challenge: much better in controlling the tumor growth
0.5 mg s.c. at d0 and d2 with CpG and SIINFEKL, blood 14 days after vaccination
  proportion of transferred OT1 CD8 T cells that formed memory precursor cells: drives a memory phenotype; also recorded: increased proportion
